Source: US11078232B2, “Preparation and use of molecular site targeted and activated kinase inhibitor” (Yafei Shanghai Biology Medicine Science & Technology Co. …, priority 2017, dated 2021)

Legend:
[1] = Stability of carbohydrate-linked enzyme substrate peptide linkers; type: physicochemical; settings: linker: carbohydrate linked to the enzyme substrate peptide
Procedure: (§1) The specific aspartic acid endopeptidase (Legumain) enzyme substrate peptide was ligated to different types of carbohydrates, and the stability and enzymatic cleavage efficiency of the resulting linker were tested, and a strong activation was predicted.

[2] = molecular target: T1, aspartic acid endopeptidase (Legumain) (Homo sapiens, UniProt Q99538); assay: Enzymatic cleavage (digestion) efficiency of linkers; type: biochemical; settings: linker cleaved by Legumain
T1 sequence (Q99538 18-323): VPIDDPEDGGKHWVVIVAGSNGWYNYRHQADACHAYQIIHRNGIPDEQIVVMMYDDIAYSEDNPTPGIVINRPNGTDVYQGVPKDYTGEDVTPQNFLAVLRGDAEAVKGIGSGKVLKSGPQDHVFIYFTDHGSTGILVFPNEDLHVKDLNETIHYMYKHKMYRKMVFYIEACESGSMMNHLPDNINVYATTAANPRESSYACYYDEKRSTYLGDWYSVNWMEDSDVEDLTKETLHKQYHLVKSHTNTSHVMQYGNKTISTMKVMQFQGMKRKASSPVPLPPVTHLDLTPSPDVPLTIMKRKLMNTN
Procedure: as §1

BALB/C mouse = assay: MTD (maximum tolerated dose) acute toxicity in mice; type: in vivo; settings: intravenous; for Number of deaths: 10 mice per group; for Death dose: observed 17 days
Excerpt: (§2) Test purpose: to investigate the acute toxicity of highly activated compounds by targeted site molecules of the invention by measuring the MTD (maximum tolerated dose) experiment in mice.
(§3) The injections of each drug and the control drug were uniformly dissolved using water for injection, and diluted to the corresponding dose with physiological saline during the test.
(§4) Methods and results: […] BALB/C mice, weighing 19-21 g, were randomly divided into 10 groups, with 10 mice in each group. […] A control test of the saline group and the adriamycin group injection (commercially available, Beijing Yue kang) was carried out, and the injection volume of each mouse was 0.2 ml. […] On the D3, D5, and D14, blood samples were taken for whole blood count.

[3] = as above; type: in vivo, mouse; settings: mouse, in vivo, BALB/C mice, intravenous, observed 17 days; for MTD at 17 days: female
Excerpt: as §2, §3, §4

aspartic endopeptidase = molecular target: T2, aspartic endopeptidase (Homo sapiens, UniProt Q99538); assay: Activation efficiency by aspartic endopeptidase (HPLC); type: biochemical; settings: 1 mg/ml compound, enzyme 1 μmol/L, pH 6.0, 37° C., 2 hours; ratio of released product to original compound
T2 sequence (Q99538 18-323): T1 sequence (Q99538 18-323)
Procedure: The sample compound and a portion of the control compound (herein, all of the control compounds can be synthesized by a method similar to that described in Examples 1-3) were uniformly diluted 10-fold to 1 mg/ml with the enzyme-digesting solution. In this experiment, 1 mg/ml of the sample compound was added to the aspartic endopeptidase (1 μmol/L, pH 6.0) at 37° C. for 2 hours. After the reaction, the enzyme digest was able to release the enzyme-digested product. The decrease in the compound and the increase in the product were examined by HPLC to compare the enzyme activation efficiency (the ratio of the product released by the enzyme cleavage to the original compound).

CT26 tumor cells [4] = assay: CT26 immunotherapy model (Example 15); type: in vivo, mice; settings: for Cure rate % / Number of cures: 10 in each group; for Tumor inhibition rate % (Day 42): IV ⅓ MTD once a week, 6 weeks; for Recurrence rate % (Week 7): cured mice re-inoculated with CT26 cells after 50 days
Procedure: (§5) 1) CT26 tumor cells were purchased from ATCC, and the cells were cultured using a 10% fetal bovine serum DMEM medium at 37° C., 5% CO2. The cells were passaged every 3 days and the cells were used within 15 generations.
(§6) 2) Tumor production: 10^6 live CT26 tumor cells were injected subcutaneously into the back of tumor-immunized […], and treatment was started when the tumor grew to about 0.3-0.4 cm. The tumor size (mm^3) of the mice was recorded and compared with the solvent control group. The tumor inhibition rate on day 42 was calculated in the solvent control group.
(§7) 3) Treatment process: IV injection is used, and the drug is used at a dose of ⅓ MTD once a week Immunosuppressive IV injection treatment once a week for a total of 6 weeks of treatment.
(§8) 4) The cure rate of 10 in each group was counted. After 50 days, the cured mice and wild groups were inoculated […] to detect recurrence.

[5] = Solid stability, 60° C. for 10 days in the dark (HPLC); type: physicochemical; settings: solid, 60° C., 10 days, dark; for Stability(%): content versus time 0
Procedure: The test was carried out by leaving it at 60° C. for 10 days in the dark. The ratio of the change in the content of the compound to the compound at time 0 was measured by HPLC, and the stability value (%) was calculated.

D121 lung cancer cells = assay: D121 lung cancer immunotherapy model; settings: single agent; for Tumor inhibition rate/% (week 7): i.v. ⅙ MTD once a week for 4 weeks; for CD8: CD45 (%): tumor CD8+ T cells among CD45-positive cells, flow cytometry
CT26 tumor cells [6] = assay: CT26 treatment model (Example 17); type: in vivo, mice; settings: CT26 model as in Example 15
Procedure: as §5, §6, §7, §8
The CT26 immunotherapy model was constructed as in Example 15, and the pharmacodynamic and immunotherapeutic effects of the compounds S4-S6, S9-S12 and S15-S18 in the CT26 treatment model were tested.

Compound	stability [1] [%]	Digestion efficiency [2] [%]	Number of deaths (BALB/C mouse)	Death dose (BALB/C mouse) [mg/kg]	MTD [3] [mg/kg]	Activation efficiencies (%) (aspartic endopeptidase)	Cure rate % (CT26 tumor cells [4]) [%]	Number of cures (CT26 tumor cells [4])	Tumor inhibition rate % (Day 42) (CT26 tumor cells [4]) [%]	Stability verdict (stable / unstable) [5]	Stability(%) [5] [%]	Tumor inhibition rate/% (week 7) (D121 lung cancer cells) [%]	CD8: CD45 (%) (D121 lung cancer cells)	MTD at 17 days [3] [mg/kg]	CD8: CD45 (%) (CT26 tumor cells [6])	Number of animals cured (CT26 tumor cells [6])	Recurrence rate/% (at week 10) (CT26 tumor cells [6]) [%]	Tumor inhibition rate/% (at week 7) (CT26 tumor cells [6]) [%]	Recurrence rate % (Week 7) (CT26 tumor cells [4]) [%]
CC(/N=C/[C@H](O)[C@@H](O)[C@H](O)CO)C(=O)NC(C)C(=O)NC(CC(N)=O)C(=O)Nc1ccc(CO)cc1 (some centres unmarked)	78.9	60.4	–	–	–	–	–	–	–	–	–	–	–	–	–	–	–	–	–
C[C@H](N=C[C@H](O)[C@@H](O)[C@H](O)[C@H](O)CO)C(=O)N[C@@H](C)C(=O)N[C@@H](CC(N)=O)C(=O)Nc1ccc(COC(=O)N(C)CCNC(=O)c2cc(Oc3ccc(NC(=O)Nc4ccc(Cl)c(C(F)(F)F)c4)cc3)ccn2)cc1 [Compound C4, Glucose-AAN-PABC-Compound a, reference compound]	–	–	2	90	80	46.7	0	0	36.6	unstable	85.7	40.8	10.7	–	–	–	–	–	–
CC(NC(=O)C(C)NC(=O)[C@H](O)[C@H](O)[C@@H](O[C@@H]1O[C@H](CO)[C@H](O)[C@H](O)[C@H]1O)[C@H](O)CO)C(=O)NC(CC(N)=O)C(=O)Nc1ccc(COC(=O)Nc2nccc(-c3sc(C(C)(C)C)nc3-c3cccc(NS(=O)(=O)c4c(F)cccc4F)c3F)n2)cc1 (some centres unmarked) [Compound S4]	–	–	2	300	–	–	–	–	–	–	–	70.7	15.8	280	11.9	2	0	58.9	–
CC(NC(=O)C(C)NC(=O)[C@H](O)[C@H](O)[C@@H](O[C@@H]1O[C@H](CO)[C@H](O)[C@H](O)[C@H]1O)[C@H](O)CO)C(=O)NC(CC(N)=O)C(=O)Nc1ccc(COC(=O)Nc2c(-c3nc4ccc(N5CCN(C)CC5)cc4[nH]3)c(=O)[nH]c3cccc(F)c23)cc1 (some centres unmarked) [Compound S5]	–	–	2	320	–	–	–	–	–	–	–	76.7	15.3	310	11.5	1	0	60.1	–
CC(NC(=O)C(C)NC(=O)[C@H](O)[C@H](O)[C@@H](O[C@@H]1O[C@H](CO)[C@H](O)[C@H](O)[C@H]1O)[C@H](O)CO)C(=O)NC(CC(N)=O)C(=O)Nc1ccc(COC(=O)N2CC(C)(C)c3ccc(NC(=O)c4cccnc4NCc4ccncc4)cc32)cc1 (some centres unmarked) [Compound S6]	–	–	1	290	–	–	–	–	–	–	–	73.4	14.4	280	14.9	1	0	66.7	–
CC(NC(=O)C(NC(=O)[C@H](O)[C@H](O)[C@@H](O[C@@H]1O[C@H](CO)[C@H](O)[C@H](O)[C@H]1O)[C@H](O)CO)C(C)C)C(=O)NC(CC(N)=O)C(=O)Nc1ccc(COC(=O)N(C)CCNC(=O)c2cc(Oc3ccc(NC(=O)Nc4ccc(Cl)c(C(F)(F)F)c4)cc3)ccn2)cc1 (some centres unmarked) [Compound S7, Lacto-VAN-PABC-compound a]	–	–	1	345	–	90.5	70	7	84.7	stable	97.2	–	–	300	–	–	–	–	0
CC(NC(=O)C(NC(=O)[C@H](O)[C@H](O)[C@@H](O[C@@H]1O[C@H](CO)[C@H](O)[C@H](O)[C@H]1O)[C@H](O)CO)C(C)C)C(=O)NC(CC(N)=O)C(=O)Nc1ccc(COC(=O)N(C)CCNC(=O)c2cc(Oc3ccc(NC(=O)Nc4ccc(Cl)c(C(F)(F)F)c4)c(F)c3)ccn2)cc1 (some centres unmarked) [Compound S8, Lacto-VAN-PABC-compound b]	–	–	2	340	–	93.7	70	7	73.4	stable	98.4	–	–	280	–	–	–	–	0
CC(NC(=O)C(NC(=O)[C@H](O)[C@H](O)[C@@H](O[C@@H]1O[C@H](CO)[C@H](O)[C@H](O)[C@H]1O)[C@H](O)CO)C(C)O)C(=O)NC(CC(N)=O)C(=O)Nc1ccc(COC(=O)N(C)CCNC(=O)c2cc(Oc3ccc(NC(=O)Nc4ccc(Cl)c(C(F)(F)F)c4)cc3)ccn2)cc1 (some centres unmarked) [Compound S13, Lacto-TAN-PABC-compound a]	–	–	2	360	–	98.6	80	8	79.7	stable	98.6	–	–	320	–	–	–	–	0
CC(NC(=O)C(NC(=O)[C@H](O)[C@H](O)[C@@H](O[C@@H]1O[C@H](CO)[C@H](O)[C@H](O)[C@H]1O)[C@H](O)CO)C(C)O)C(=O)NC(CC(N)=O)C(=O)Nc1ccc(COC(=O)N(C)CCNC(=O)c2cc(Oc3ccc(NC(=O)Nc4ccc(Cl)c(C(F)(F)F)c4)c(F)c3)ccn2)cc1 (some centres unmarked) [Compound S14, Lacto-TAN-PABC-compound b]	–	–	1	350	–	99.5	80	8	85.	stable	97.8	–	–	310	–	–	–	–	0
Lacto-AAN-PABC-Paclitaxel [Compound C5, reference compound]	–	–	–	–	–	59.3	–	–	–	unstable	89.3	–	–	–	–	–	–	–	–
